Ten compounds from patent US20230145305A1, “COMPOUNDS USEFUL AS KINASE INHIBITORS” (Fochon Biosciences, Ltd., priority 2020, published 2023) can be followed below.

One test concerns the target T1, BTK (C481S) (Homo sapiens, UniProt Q06187, C481S).
T1 construct: purchased SignalChem B10-12CH
As to the kind of experiment: Kinase assay of BTK (C481S), [33P]-ATP filter-binding, Reaction Biology Corporation. The format is biochemical. To be noted: 6 nM BTK (C481S), 0.2 mg/ml pEY substrate, 10 μM ATP, 20 min preincubation, 120 min reaction at room temperature. How it is done:
The kinase activity of BTK (C481S) was assayed at Reaction Biology Corporation. The substrate in the BTK (C481S) reaction, pEY (poly[Glu:Tyr] (4:1)) (Sigma, Cat. #P7244-250MG), was prepared in fresh reaction buffer (20 mM Hepes (pH 7.5), 10 mM MgCl2, 1 mM EGTA, 0.02% Brij35, 0.02 mg/mi BSA, 0.1 mM Na3VO4, 2 mM DTT, 1% DMSO). BTK(C481S) (SignalChem, Cat. #B10-12CH) was delivered into the substrate solution and mixed gently. The final concentrations of BTK (C481S) and the substrate in the reaction mixture were 6 nM and 0.2 mg/ml, respectively. Compounds were tested in 10-point concentration/response mode with 3-fold serial dilution steps starting at 1 μM.
Compounds in 100% DMSO were delivered into the kinase reaction mixture by acoustic liquid delivery technology (Echo550; nanoliter range) and incubated for 20 min at room temperature. 10 μM [^33P]-ATP (ATP: Sigma, Cat #: A7699; [^33P]-ATP: Hartmann Analytic, Cat #: SCF-301-12) was delivered into the reaction mixture to initiate the reaction. The mixture was incubated for 120 min at room temperature. Radioactivity was detected utilizing a proprietary filter-binding method. Kinase activity data were expressed as the percent remaining kinase activity in test samples compared to vehicle (DMSO) reactions. IC50 values were obtained using GraphPad Prism software.
Select compounds prepared as described above were assayed according to the biological procedures described herein.

The test system of a further test is OCI-LY10 cells. Put plainly: Cell proliferation assay (MTS) in OCI-LY10 cells. The class given is cell-based. The note with it: Homo sapiens; inhibition of OCI-LY10 cells proliferation, 72 h incubation, MTS, absorbance at 490 nm; read-out: OCI-LY10 IC50. The method, boiled down: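 BTK-dependent OCI-LY10 proliferation: cells seeded at 10000/well, preincubated 4 h, then compound exposure 72 h at 37° C., 5% CO2. MTS added for 2 h and absorbance read at 490 nm; IC50 derived from the concentration-response.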

Each structure is given as a SMILES string.

T1 sequence (Q06187 whole entry C481S): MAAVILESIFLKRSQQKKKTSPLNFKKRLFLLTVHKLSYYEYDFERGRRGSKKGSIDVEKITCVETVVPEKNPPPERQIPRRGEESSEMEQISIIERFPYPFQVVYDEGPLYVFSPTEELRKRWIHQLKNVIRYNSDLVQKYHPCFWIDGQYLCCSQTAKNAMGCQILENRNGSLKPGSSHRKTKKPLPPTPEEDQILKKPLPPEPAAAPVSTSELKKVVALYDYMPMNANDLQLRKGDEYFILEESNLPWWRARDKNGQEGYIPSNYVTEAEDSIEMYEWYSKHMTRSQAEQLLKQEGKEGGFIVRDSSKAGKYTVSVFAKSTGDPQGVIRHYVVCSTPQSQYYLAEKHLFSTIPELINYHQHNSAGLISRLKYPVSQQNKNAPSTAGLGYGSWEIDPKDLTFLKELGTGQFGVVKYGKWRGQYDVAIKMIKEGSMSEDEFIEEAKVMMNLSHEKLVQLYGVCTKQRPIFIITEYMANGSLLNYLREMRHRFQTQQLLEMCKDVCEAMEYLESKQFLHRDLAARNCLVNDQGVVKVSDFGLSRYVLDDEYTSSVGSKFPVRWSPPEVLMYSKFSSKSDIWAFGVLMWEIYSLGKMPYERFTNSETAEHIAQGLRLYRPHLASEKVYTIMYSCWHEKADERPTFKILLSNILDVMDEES

As for `COc1ccccc1C(=O)NCc1ccc(-n2cc(C3CCCC3)c3c(=O)[nH]nc(N)c32)cc1` [Example 1, N-(4-(7-amino-3-cyclopentyl-4-oxo-4,5-dihydro-1H-pyrrolo[2,3-d]pyridazin-1-yl)benzyl)-2-methoxybenzamide], the IC50 at BTK (C481S) is 5 nM; with OCI-LY10 cells it was 28 nM.
Taken in the same sequence, the figures for `COc1ccccc1C(=O)NCc1ccc(-n2nc(C3CCCC3)c3c(=O)[nH]nc(N)c32)cc1` [Example 2, N-(4-(7-amino-3-cyclopentyl-4-oxo-4,5-dihydro-1H-pyrazolo[3,4-d]pyridazin-1-yl)benzyl)-2-methoxybenzamide] were 3.3 nM and 34 nM.
For `COc1ccccc1C(=O)NCc1ccc(-c2cn(C3CCCC3)c3c(=O)[nH]nc(N)c23)cc1` [Example 4, N-(4-(4-amino-1-cyclopentyl-7-oxo-6,7-dihydro-1H-pyrrolo[2,3-d]pyridazin-3-yl)benzyl)-2-methoxybenzamide] the same measures were 6.5 nM and 69 nM.
Taken in the same sequence, the figures for `COc1ccccc1C(=O)NCc1ccc(-c2nn(C3CCCC3)c3c(=O)[nH]nc(N)c23)cc1` [Example 5, N-(4-(4-amino-1-cyclopentyl-7-oxo-6,7-dihydro-1H-pyrazolo[3,4-d]pyridazin-3-yl)benzyl)-2-methoxybenzamide] were 8 nM and 68 nM.
On BTK (C481S), `COc1ccccc1C(=O)NCc1ccc(-c2nc(C3CCCC3)n3ncnc(N)c23)cc1` [Example 6, N-(4-(4-amino-7-cyclopentylimidazo[5,1-f][1,2,4]triazin-5-yl)benzyl)-2-methoxybenzamide] showed an IC50 of 7.8 nM.
The same measure, in the same setting: to `COc1ccccc1C(=O)NCc1ccc(-c2nc(C3CCCC3)n3ccnc(N)c23)cc1` [Example 7, N-(4-(8-amino-3-cyclopentylimidazo[1,5-a]pyrazin-1-yl)benzyl)-2-methoxybenzamide] belongs 3 nM.
`COc1ccc(F)cc1C(=O)NCc1ccc(-n2cc(C3CCCC3)c3c(=O)[nH]nc(N)c32)cc1` [Example 8, N-(4-(7-amino-3-cyclopentyl-4-oxo-4,5-dihydro-1H-pyrrolo[2,3-d]pyridazin-1-yl)benzyl)-5-fluoro-2-methoxybenzamide]: the IC50 amounted to 0.45 nM at BTK (C481S) and 1 nM in the test on OCI-LY10 cells.
For `COc1ccc(F)cc1C(=O)NCc1ccc(-c2nn(C3CCCC3)c3c(=O)[nH]nc(N)c23)cc1` [Example 11, N-(4-(4-amino-1-cyclopentyl-7-oxo-6,7-dihydro-1H-pyrazolo[3,4-d]pyridazin-3-yl)benzyl)-5-fluoro-2-methoxybenzamide], the IC50 at BTK (C481S) turned out to be 0.5 nM; with OCI-LY10 cells, 1 nM.
For `COc1ccc(F)cc1C(=O)NCc1ccc(-c2cn(C3CCCC3)c3c(=O)[nH]nc(N)c23)cc1` [Example 17, N-(4-(4-amino-1-cyclopentyl-7-oxo-6,7-dihydro-1H-pyrrolo[2,3-d]pyridazin-3-yl)benzyl)-5-fluoro-2-methoxybenzamide] the same measures were 0.5 nM and 1 nM.
For `COc1ccc(F)cc1C(=O)NCc1ccc(-c2nn([C@H]3CCC[C@H]3F)c3c(=O)[nH]nc(N)c23)cc1` [Example 81, N-(4-(4-amino-1-((1S,2R)-2-fluorocyclopentyl)-7-oxo-6,7-dihydro-1H-pyrazolo[3,4-d]pyridazin-3-yl)benzyl)-5-fluoro-2-methoxybenzamide] the same measures were 0.91 nM and 1 nM.
